Series [1] deals with Western Equine Encephalitis Virus (WEEV). Conditions: cultured human neuronal cells; cited from earlier work.
Series [2] deals with CMV TB40. As to the kind of experiment: microbe, parasite or virus in culture. Format: cell-based, human cytomegalovirus. The following applies: Human betaherpesvirus 5, 168 h, read-out: EC50 TB40.
The nature of series [3]: MTT toxicity assay in non-infected cells. Format: cell-based. Conditions: human, non-infected HFF cells, non-infected HFFs. (In general: Tetrazolium assays rely on reduction of a dye to a coloured formazan, in cell work by metabolically active cells.)
The test system of a further series is CMV TB40 (US17 DNA). As to the kind of experiment: Viral DNA in cells and supernatants by US17 real-time PCR. In kind it is cell-based, human cytomegalovirus. Conditions: for cellular viral loads (viral DNA replication in cells): 72, 96, 120 h. (In general: Quantitative PCR measures a nucleic acid by following its amplification.)
Series [4] relates to CMV TB40. The arrangement: method as in ref 24 = [24]. The following applies: cited from earlier work.
Series [5] deals with MCMV Smith strain. The arrangement: method as in ref 24 = [24]. Conditions: cited from earlier work.
Series [6] concerns HSV1. The arrangement: method as in ref 24 = [24]. The following applies: cited from earlier work.
Series [7] has as its system HSV2. The arrangement: method as in ref 24 = [24]. Conditions: cited from earlier work.
Series [8] concerns pp28-luciferase recombinant Towne CMV. Nature of the series: microbe, parasite or virus in culture. The following applies: Human betaherpesvirus 5, read-out: EC50 pp28-Luciferase.
The test system of series [9] is MCMV Smith strain. Nature of the series: microbe, parasite or virus in culture. In kind it is cell-based. Conditions: Mouse cytomegalovirus, Fibroblast, read-out: EC50 MCMV.
Series [10] has as its system CMV TB40. Nature of the series: Virus yield: supernatants of TB40-infected HFFs titered by plaque assay. The following applies: supernatants at 72, 96, 120 h; for reduction in viral titer (virus yield) of supernatants: 3 µM. In kind it is cell-based, human cytomegalovirus.
Series [11] relates to pp28-luciferase recombinant Towne CMV. The following applies: CC50 in non-infected HFFs versus anti-CMV EC50.
Series [12] concerns HSV1. Nature of the series: HSV1 plaque assay in Vero cells. Format: cell-based, Human Herpesvirus 1. Conditions: 5 µM, positive control.
The test system of series [13] is HSV2. As to the kind of experiment: HSV2 plaque assay in Vero cells. In kind it is cell-based, Human Herpesvirus 2. The following applies: 5 µM, positive control.
The test system of another series is CMV. The arrangement: method as in ref 23 = [23]. The following applies: cited from earlier work.

Entries after “also recorded” stand apart in the source; their conditions may differ. Bounds are passed on as bounds.

`O=C(NCCc1ccncc1)C1CCN(C(=O)c2cc3ccccc3n2Cc2ccc(Cl)cc2)CC1` [CCG205432]: the “inhibition of infectious virus” value in series [1] is given as “inhibited the infectious virus”.

On to `CC(C)NC(=O)C1CCN(C(=O)c2cc3sccc3n2Cc2ccc(Cl)cc2)CC1` [Compound 1], for which the EC50 (usually the concentration that produces a half-maximal response) with CMV TB40 [2] is 1990 ± 150 nM; in series [8] it was 1700 ± 600 nM. Further, the CC50 (usually the concentration giving 50% cytotoxicity) at 72 h in series [3] is over 200000 nM. Moreover, in the series with CMV TB40 (US17 DNA) (3 µM), the “cellular viral loads (viral DNA replication in cells)” value (“cellular viral loads” for short) is listed as “did not reduce”. Moreover, in the series on CMV TB40 [4], the “in vitro activity against TB40” value is recorded as “low µM concentrations”. In addition, in the series with MCMV Smith strain [5], the “in vitro activity against mouse CMV” value is listed as “low µM concentrations”. In addition, the “activity against HSV1” value in the series on HSV1 [6] was “no activity”. Besides, in the series with HSV2 [7], the “activity against HSV2” value is given as “no activity”.

`CC(C)NC(=O)C1CCCN(C(=O)c2cc3sccc3n2Cc2ccc(Cl)cc2)C1` (centres unmarked) [Compound 2]: the concentration for a half-maximal effect (EC50) in [8] was over 30000 nM.

For `CC(C)NC(=O)C1CCN(C(=O)c2cc3ccccc3n2Cc2ccc(Cl)cc2)CC1` [Compound 3], the EC50 in series [8] is over 30000 nM.

With `CC(C)NC(=O)C1CCN(C(=O)c2cccn2Cc2ccc(Cl)cc2)CC1` [Compound 4], the EC50 in [8] is over 30000 nM.

With `O=C(NCCc1ccccn1)C1CCN(C(=O)c2cccn2Cc2ccc(Cl)cc2)CC1` [Compound 5], in series [8], the EC50 is over 30000 nM.

Turning to `O=C(NCCc1cccnc1)C1CCN(C(=O)c2cccn2Cc2ccc(Cl)cc2)CC1` [Compound 6], the EC50 in series [8] is over 30000 nM.

In the case of `O=C(NCCc1ccncc1)C1CCN(C(=O)c2cccn2Cc2ccc(Cl)cc2)CC1` [Compound 7], the EC50 in the series on CMV TB40 [2] turned out to be 550 ± 60 nM; in the series on MCMV Smith strain [9] it was 600 ± 340 nM; in series [8], 210 ± 60 nM. For the same compound, the CC50 at 72 h in [3] is over 500000 nM. Also, the “reduction in viral titer (virus yield) of supernatants” value with CMV TB40 [10] is “reduced virus yield at all late time points; also recorded: higher than with 1 and overall similar to GCV”. Besides, the “viral loads in supernatants” value in the series on CMV TB40 (US17 DNA) (3 µM, 72, 96, 120 hpi) is “decreased the viral loads in supernatants at all time points”. Also, the “cellular viral loads” value with CMV TB40 (US17 DNA) (3 µM) is reported as “did not reduce”. In addition, in [11], the selectivity index is reported as over 1500.

As for `O=C(NCCc1ccncc1)C1CCN(C(=O)c2cc3ccccc3n2Cc2ccc(Cl)cc2)CC1` [Compound 8], the results for the EC50 (in the series with CMV TB40 [2]; in the series with MCMV Smith strain [9]; in series [8]) were 420 ± 70 nM, 730 ± 320 nM and 280 ± 60 nM, respectively. The same compound gave a CC50 at 72 h in series [3] of over 500000 nM. Moreover, the “reduction in viral titer (virus yield) of supernatants” value with CMV TB40 [10] is “higher than with 1 and overall similar to GCV”. In addition, the “viral loads in supernatants” value with CMV TB40 (US17 DNA) (3 µM, 72, 96, 120 hpi) is given as “decreased viral loads at 120 hpi”. Besides, in the series on CMV TB40 (US17 DNA) (3 µM), the “cellular viral loads” value was “did not reduce”. Further, the selectivity index in series [11] was over 1500.

As for `O=C(NCCc1ccncc1)C1CCN(C(=O)c2cc3sccc3n2Cc2ccc(Cl)cc2)CC1` [Compound 9], the results for the EC50 (with CMV TB40 [2]; in series [8]) were 350 ± 70 nM and 300 ± 50 nM, respectively. The CC50 at 72 h in [3] is over 500000 nM. In addition, the selectivity index in series [11] was over 1500.

For `O=C(NCc1ccccn1)C1CCN(C(=O)c2cccn2Cc2ccc(Cl)cc2)CC1` [Compound 10], the EC50 in series [8] was over 30000 nM.

As to `O=C(NCc1cccnc1)C1CCN(C(=O)c2cccn2Cc2ccc(Cl)cc2)CC1` [Compound 11], the EC50 in series [8] was over 30000 nM.

As for `O=C(NCc1ccncc1)C1CCN(C(=O)c2cccn2Cc2ccc(Cl)cc2)CC1` [Compound 12], the EC50 in [8] is over 30000 nM.

For the compound `O=C(O)C1CCN(C(=O)c2cccn2Cc2ccc(Cl)cc2)CC1` [Compound 13], the EC50 in series [8] was over 30000 nM.

`CCOC(=O)C1CCN(C(=O)c2cccn2Cc2ccc(Cl)cc2)CC1` [Compound 14]: the EC50 in [8] was over 30000 nM.

With `Nc1nc(O)c2ncn(COC(CO)CO)c2n1` [GCV, ganciclovir, reference compound], the “inhibition of HSV1” value in the series on HSV1 [12] is recorded as “complete inhibition”. The “inhibition of HSV2” value in the series with HSV2 [13] is given as “complete inhibition”. In the series with CMV TB40 (US17 DNA) (5 µM), the “viral DNA in supernatants” value is given as “reduced DNA replication” and the “viral DNA replication in cells” value was “reduced DNA replication”.

For the compound `COc1cccc(N2CCN(C3=Nc4c(F)cccc4[C@H](CC(=O)O)N3c3cc(C(F)(F)F)ccc3OC)CC2)c1` [Letermovir, reference compound], in the series with CMV TB40 [10] (10 nM), the “reduction in viral progeny of supernatants” value is given as “strongest reduction in viral progeny at all time points”. Further, the “viral loads in supernatants” value in the series with CMV TB40 (US17 DNA) (10 nM) is given as “reduced viral loads in supernatants”.

As to `CC(C)Nc1nc2cc(Cl)c(Cl)cc2n1[C@H]1O[C@@H](CO)[C@H](O)[C@@H]1O` [maribavir, Maribavir], the response in the series with CMV (across all doses) is ~ 65%. Moreover, the CMV recurrences with CMV (of the participants) is given as 35%.

The values above are taken from publication PMC8876412 (Viruses, 2022).
